Laboratory results: patent publication US9890142B2, “PDE4 inhibitor” (Meiji Seika Pharma Co., Ltd., priority 2013, dated 2018)

These compounds were tested on PDE4 (assay: Evaluation of PDE4 inhibition (scintillation proximity assay)). Details: inhibition rate relative to control, test compound at 1 μM.
Type: biochemical
Description: Test Example 1 Evaluation of PDE4 Inhibition
The PDE4 inhibitory activity was measured by using scintillation proximity assay (SPA) as follows: one in which a sample compound dissolved in dimethyl sulfoxide was diluted 10-fold with a buffer solution for reaction containing 50 mM Tris-HCl, pH 7.5, 8.3 mM MgCl2, 1.7 mM EDTA and 0.3 mg/mL bovine serum albumin (BSA) was added at 10 μL/well to a 96-well assay plate. Further, PDE4 diluted 750-fold with a buffer solution for reaction was added at 50 μL/well, then [2,8-^3H]-Adenosine-3′,5′-cyclic phosphate triethylammonium salt diluted 1000-fold with a buffer solution for reaction was added at 40 μL/well, and the plate was left standing at room temperature for 120 minutes. Thereafter, a suspension of RNA binding YSi-SPA Beads containing 200 mM ZnSO4 was added at 50 μL/well, and the plate was left standing at room temperature for 15 minutes to adsorb the enzyme reaction product onto the Beads. Thereafter, the radioactivity was measured with a liquid scintillation counter for 96-well plates. When one supplemented with only a buffer solution for reaction without adding the enzyme preparation was used as a blank and one supplemented with the enzyme preparation but supplemented with only dimethyl sulfoxide instead of the sample solution was used as a control, the inhibition rate of the test compound relative to the control was calculated according to the following calculation expression: Inhibition rate (%)={1−(Numeric value from the addition of each sample−Blank value)/(Control value−Blank value)}×100
`C[C@H]1CNCCN1c1nc2cc(Cl)cc(C(=O)O)c2o1` [Example 99, (S)-5-Chloro-7-carboxy-2-(2-methylpiperazin-1-yl)benzoxazole] was tested, and the “PDE4 inhibitory activity (1 μM (%))” value was under 10%.
`CCCc1cc(Cl)cc2nc(N3CCNC[C@@H]3C)oc12` [Example 95, (S)-5-Chloro-2-(2-methylpiperazin-1-yl)-7-n-propylbenzoxazole] was tested, and the “PDE4 inhibitory activity (1 μM (%))” value was 71%.
In the case of `Cc1cc(-c2ccccn2)c2oc(N3CCNC[C@@H]3C)nc2c1` [Example 114, (S)-5-methyl-2-(2-methylpiperazin-1-yl)-7-(pyridin-2-yl)benzoxazole], the “PDE4 inhibitory activity (1 μM (%))” value is reported as 77%.
In the case of `C[C@H]1CNCCN1c1nc2cc(Cl)c(F)c(-n3cccn3)c2o1` [Example 94, (S)-5-Chloro-6-fluoro-2-(2-methylpiperazin-1-yl)-7-(1H-pyrazol-1-yl)benzoxazole], the “PDE4 inhibitory activity (1 μM (%))” value is reported as 62%.
With `Cc1cc2oc(N3CCNC[C@@H]3C)nc2cc1Cl` [Example 170, (S)-5-Chloro-6-methyl-2-(2-methylpiperazin-1-yl)benzoxazole] the “PDE4 inhibitory activity (1 μM (%))” value was 15%.
For `Cc1cc(-c2ccsc2)cc2nc(N3CCNC[C@@H]3C)oc12` [Example 173, (S)-7-Methyl-5-(thiophen-3-yl)-2-(2-methylpiperazin-1-yl)benzoxazole], the “PDE4 inhibitory activity (1 μM (%))” value was 35%.
With `Cc1c(Cl)cc(-c2ccccn2)c2oc(N3CCNC[C@@H]3C)nc12` [Example 131, (S)-5-Chloro-4-methyl-2-(2-methylpiperazin-1-yl)-7-(pyridin-2-yl)benzoxazole] the “PDE4 inhibitory activity (1 μM (%))” value was 90%.
`C[C@H]1CNCCN1c1nc2c(OC(F)(F)F)c(F)cc(-c3nccs3)c2o1` [Example 135, (S)-5-Fluoro-2-(2-methylpiperazin-1-yl)-7-(thiazol-2-yl)-4-(trifluoromethoxy)benzoxazole] was tested, and the “PDE4 inhibitory activity (1 μM (%))” value was 99%.
`C[C@H]1CNCCN1c1nc2cc(Cl)cc(C#N)c2o1` [Example 10, (S)-5-Chloro-7-cyano-2-(2-methylpiperazin-1-yl)benzoxazole] was tested, and the “PDE4 inhibitory activity (1 μM (%))” value was 36%.
With `C[C@H]1CNCCN1c1nc2c(I)c(Cl)cc(-c3ccccn3)c2o1` [Example 146, (S)-5-Chloro-4-iodo-2-(2-methylpiperazin-1-yl)-7-(pyridin-2-yl)benzoxazole] the “PDE4 inhibitory activity (1 μM (%))” value was 95%.
For `C[C@H]1CNCCN1c1nc2cc(Cl)c(Br)c(-c3ccccn3)c2o1` [Example 152, (S)-6-Bromo-5-chloro-2-(2-methylpiperazin-1-yl)-7-(pyridin-2-yl)benzoxazole], the “PDE4 inhibitory activity (1 μM (%))” value was 68%.
`C[C@H]1CNCCN1c1nc2cc(Cl)cc(-c3ccsc3Cl)c2o1` [Example 64, (S)-5-Chloro-7-(2-chlorothiophen-3-yl)-2-(2-methylpiperazin-1-yl)benzoxazole] was tested, and the “PDE4 inhibitory activity (1 μM (%))” value was 73%.
`CCc1cc(Cl)cc2nc(N3CCNC[C@@H]3CC(C)C)oc12` [Example 12, (S)-5-Chloro-7-ethyl-2-(2-isobutylpiperazin-1-yl)benzoxazole] was tested, and the “PDE4 inhibitory activity (1 μM (%))” value was under 10%.
`CCOC(=O)c1cc(Cl)cc2nc(N3CCNC[C@@H]3C)oc12` [Example 9, (S)-5-Chloro-7-ethoxycarbonyl-2-(2-methylpiperazin-1-yl)benzoxazole] was tested, and the “PDE4 inhibitory activity (1 μM (%))” value was 50%.
`C[C@H]1CNCCN1c1nc2cc(C(F)(F)F)cc(-c3ncco3)c2o1` [Example 127, (S)-2-(2-Methylpiperazin-1-yl)-7-(oxazol-2-yl)-5-(trifluoromethyl)benzoxazole] was tested, and the “PDE4 inhibitory activity (1 μM (%))” value was 90%.
For `C[C@H]1CNCCN1c1nc2cc(Cl)cc(-c3cccnc3)c2o1` [Example 42, (S)-5-Chloro-2-(2-methylpiperazin-1-yl)-7-(pyridin-3-yl)benzoxazole], the “PDE4 inhibitory activity (1 μM (%))” value was 66%.
With `C[C@H]1CNCCN1c1nc2c(OC(F)(F)F)c(Cl)cc(-n3cccn3)c2o1` [Example 88, (S)-5-Chloro-2-(2-methylpiperazin-1-yl)-7-(1H-pyrazol-1-yl)-4-(trifluoromethoxy)benzoxazole] the “PDE4 inhibitory activity (1 μM (%))” value was 95%.
With `C[C@@H]1CN(c2nc3c(OC(F)(F)F)c(Cl)cc(-c4nccs4)c3o2)CCN1` [Example 176, (R)-5-Chloro-2-(3-methylpiperazin-1-yl)-7-(thiazol-2-yl)-4-(trifluoromethoxy)benzoxazole] the “PDE4 inhibitory activity (1 μM (%))” value was 91%.
`CCc1cc(Cl)cc2nc(N3CCNC[C@@H]3C)oc12` [Example 8, (S)-5-Chloro-7-ethyl-2-(2-methylpiperazin-1-yl)benzoxazole] was tested, and the “PDE4 inhibitory activity (1 μM (%))” value was 79%.
`C[C@H]1CNCCN1c1nc2cc(Cl)cc(-c3ncc(CO)s3)c2o1` [Example 55, (S)-5-Chloro-7-(5-hydroxymethylthiazol-2-yl)-2-(2-methylpiperazin-1-yl)benzoxazole] was tested, and the “PDE4 inhibitory activity (1 μM (%))” value was 80%.
In the case of `C[C@H]1CNCCN1c1nc2cc(Cl)cc(Cc3ccccc3)c2o1` [Example 75, (S)-7-Benzyl-5-chloro-2-(2-methylpiperazin-1-yl)benzoxazole], the “PDE4 inhibitory activity (1 μM (%))” value is reported as 45%.
In the case of `C[C@@H]1CNCCN1c1nc2c(OC(F)(F)F)c(Cl)cc(-n3cccn3)c2o1` [Example 159, (R)-5-Chloro-2-(2-methylpiperazin-1-yl)-7-(1H-pyrazol-1-yl)-4-(trifluoromethoxy)benzoxazole], the “PDE4 inhibitory activity (1 μM (%))” value is reported as 57%.
With `C[C@H]1CNCCN1c1nc2cc(Cl)cc(C(=O)N(C)C)c2o1` [Example 96, (S)-5-Chloro-7-dimethylaminocarbonyl-2-(2-methylpiperazin-1-yl)benzoxazole] the “PDE4 inhibitory activity (1 μM (%))” value was under 10%.
`Cc1cc(-c2nccs2)c2oc(N3CCNC[C@@H]3C)nc2c1` [Example 115, (S)-5-methyl-2-(2-methylpiperazin-1-yl)-7-(thiazol-2-yl)benzoxazole] was tested, and the “PDE4 inhibitory activity (1 μM (%))” value was 91%.
`C[C@H]1CNCCN1c1nc2cc(Cl)cc(CO)c2o1` [Example 15, (S)-5-Chloro-7-hydroxymethyl-2-(2-methylpiperazin-1-yl)benzoxazole] was tested, and the “PDE4 inhibitory activity (1 μM (%))” value was 21%.
In the case of `C[C@H]1CNCCN1c1nc2cc(Cl)cc(-n3ccnc3)c2o1` [Example 36, (S)-5-Chloro-7-(1H-imidazol-1-yl)-2-(2-methylpiperazin-1-yl)benzoxazole], the “PDE4 inhibitory activity (1 μM (%))” value is reported as 39%.
In the case of `C[C@H]1CNCCN1c1nc2cc(Cl)cc(-c3ccc(F)s3)c2o1` [Example 67, (S)-5-Chloro-7-(5-fluorothiophen-2-yl)-2-(2-methylpiperazin-1-yl)benzoxazole], the “PDE4 inhibitory activity (1 μM (%))” value is reported as 70%.
For `C[C@H]1CNCCN1c1nc2cc(Cl)cc(-c3ncccc3F)c2o1` [Example 61, (S)-5-Chloro-7-(3-fluoropyridin-2-yl)-2-(2-methylpiperazin-1-yl)benzoxazole], the “PDE4 inhibitory activity (1 μM (%))” value was 81%.
`CCc1cc(Cl)cc2nc(N3CCNC[C@H]3C)oc12` [Example 174, (R)-5-Chloro-7-ethyl-2-(2-methylpiperazin-1-yl)benzoxazole] was tested, and the “PDE4 inhibitory activity (1 μM (%))” value was 21%.
For `Cc1cnc(-c2cc(Cl)cc3nc(N4CCNC[C@@H]4C)oc23)s1` [Example 63, (S)-5-Chloro-2-(2-methylpiperazin-1-yl)-7-(5-methylthiazol-2-yl)benzoxazole], the “PDE4 inhibitory activity (1 μM (%))” value was 87%.
In the case of `COc1cc2oc(N3CCNC[C@@H]3C)nc2cc1Cl` [Example 171, (S)-5-Chloro-6-methoxy-2-(2-methylpiperazin-1-yl)benzoxazole], the “PDE4 inhibitory activity (1 μM (%))” value is reported as 14%.
With `CCc1cc(Cl)cc2nc(N3CCNC[C@@H]3C(C)C)oc12` [Example 11, (S)-5-Chloro-7-ethyl-2-(2-isopropylpiperazin-1-yl)benzoxazole] the “PDE4 inhibitory activity (1 μM (%))” value was 26%.
`Cc1nc(-c2cc(Cl)cc3nc(N4CCNC[C@@H]4C)oc23)cs1` [Example 69, (S)-5-Chloro-2-(2-methylpiperazin-1-yl)-7-(2-methylthiazol-4-yl)benzoxazole] was tested, and the “PDE4 inhibitory activity (1 μM (%))” value was 65%.
For `C[C@H]1CNCCN1c1nc2c(F)c(Cl)cc(-n3cccn3)c2o1` [Example 130, (S)-5-Chloro-4-fluoro-2-(2-methylpiperazin-1-yl)-7-(1H-pyrazol-1-yl)benzoxazole], the “PDE4 inhibitory activity (1 μM (%))” value was 83%.
In the case of `C[C@H]1CNCCN1c1nc2c(C(F)(F)F)c(F)cc(-c3ccccn3)c2o1` [Example 117, (S)-5-Fluoro-2-(2-methylpiperazin-1-yl)-7-(pyridin-2-yl)-4-(trifluoromethyl)benzoxazole], the “PDE4 inhibitory activity (1 μM (%))” value is reported as 88%.
In the case of `Cc1cc(Cl)cc2nc(N3CCNC[C@@H]3C)oc12` [Example 154, (S)-5-Chloro-7-methyl-2-(2-methylpiperazin-1-yl)benzoxazole], the “PDE4 inhibitory activity (1 μM (%))” value is reported as 39%.
For `C[C@H]1CNCCN1c1nc2cc(Cl)cc(N3CCCC3=O)c2o1` [Example 71, (S)-5-Chloro-2-(2-methylpiperazin-1-yl)-7-(2-oxo-pyrrolidin-1-yl)benzoxazole], the “PDE4 inhibitory activity (1 μM (%))” value was 30%.
With `C[C@H]1CNCCN1c1nc2cc(Cl)cc(-c3cccs3)c2o1` [Example 18, (S)-5-Chloro-2-(2-methylpiperazin-1-yl)-7-(thiophen-2-yl)benzoxazole] the “PDE4 inhibitory activity (1 μM (%))” value was 76%.
In the case of `C[C@H]1CNCCN1c1nc2cc(Cl)cc(-c3ccc(Cl)s3)c2o1` [Example 57, (S)-5-Chloro-7-(5-chlorothiophen-2-yl)-2-(2-methylpiperazin-1-yl)benzoxazole], the “PDE4 inhibitory activity (1 μM (%))” value is reported as 54%.
For `Cc1c(Cl)cc2nc(N3CCNC[C@@H]3C)oc2c1-n1cccn1` [Example 139, (S)-5-Chloro-6-methyl-2-(2-methylpiperazin-1-yl)-7-(1H-pyrazol-1-yl)benzoxazole], the “PDE4 inhibitory activity (1 μM (%))” value was 39%.
